The text below walks through data of patent publication US9855280B2, “Nanoparticles containing azolium and N-heterocyclic carbene compounds and use thereof” (National Dong Hwa University, priority 2015, dated 2018).

Series [1] relates to K562 human chronic myelogenous leukemia cell. As to the kind of experiment: Cell proliferation (MTT) cytotoxicity, K562. As to conditions: K562, 72 h. Type of series: cell-based. The text has this:
(§1) Nine human cancerous cell lines, included human acute monocytic leukemia cell line (THP-1), human chronic myelogenous leukemia cell (K562), human acute lymphoblastic leukemia cell (CEM), human liver cancer cell line (HepG2), human colon cancer cell line (HT-29), human lung cancer cell line (H460), human breast cancer cell line (Hs578), human tongue squamous carcinoma (SAS), and human neuroblastoma cell line (SH—SY5Y) were purchased from the Bioresource Collection and Research Center (BCRC, Taiwan). A normal splenocyte is a primary cell acquired from the mouse spleen as a normal tissue cells to compare with nine cancer cell lines. They were cultured in either RPMI or DMEM (Gibco, CA, U.S.A) based media containing 2 mM L-glutamine, 1 mM sodium pyruvate, 50U/ml penicillin/50 μg/ml streptomycin (Gibco, CA, USA). and 10% fetal bovine serum ([…], HyClone Laboratories Inc., Logan, Utah, USA) at 37° C. with 5% CO2 supplied.
(§2) Cancer cells were seeded into 96-well plate at a starting density 8-10×10^3 cells/well. After overnight culture, [C16,TEGQ-Im]Cl, [C16,TEGQ-Imy)2Au]Cl, and AuNPs-B were added at various concentrations and duration times. Cisplantin of same concentration was added in the same plate as positive control (Sigma-Aldrich, St. Louis, Mo., USA). The proliferation of the cells was measured at 72 h by the MTT method. The cell viability was examined using Ethidium bromide/Acride orange vital stain to exclude the dead cells and normalized the number of living cells to the total counted cells. […] All experiments were performed in triplicate to calculate the experimental averages and standard deviations. […]

The subject of series [2] is HepG2 human liver cancer cell line. As to the kind of experiment: Cell proliferation (MTT) cytotoxicity, HepG2. As to conditions: HepG2, 72 h. Format: cell-based.
Source text: as §1, §2

Series [3] has as its system HT-29 human colon cancer cell line. As to the kind of experiment: Cell proliferation (MTT) cytotoxicity, HT-29. Type of series: cell-based. As to conditions: HT-29, 72 h.
Source text: as §1, §2

Series [4] concerns H460 human lung cancer cell line. As to the kind of experiment: Cell proliferation (MTT) cytotoxicity, H460. Type of series: cell-based.
Source text: as §1, §2

For series [5], the system named is Hs578T human breast cancer cell line. As to the kind of experiment: Cell proliferation (MTT) cytotoxicity, Hs578T. Type of series: cell-based. As to conditions: 72 h.
Source text: as §1, §2

The subject of series [6] is SAS human tongue squamous carcinoma. As to the kind of experiment: Cell proliferation (MTT) cytotoxicity, SAS. Type of series: cell-based. As to conditions: 72 h.
Source text: as §1, §2

Series [7] has as its system SH-SY5Y human neuroblastoma cell line. As to the kind of experiment: Cell proliferation (MTT) cytotoxicity, SH-SY5Y. Type of series: cell-based. As to conditions: 72 h.
Source text: as §1, §2

The subject of series [8] is splenocyte, primary cell acquired from the mouse spleen. As to the kind of experiment: Cell proliferation (MTT) cytotoxicity, normal splenocyte. Format: cell-based. As to conditions: 72 h.
Source text: as §1, §2

Series [9] relates to THP-1 human acute monocytic leukemia cell line. As to the kind of experiment: Cell proliferation (MTT) cytotoxicity, THP-1. Format: cell-based. As to conditions: THP-1, 72 h.
Source text: as §1
(§3) Cancer cells were seeded into 96-well plate at a starting density 8-10×10^3 cells/well. After overnight culture, [C16,TEGQ-Im]Cl, [C16,TEGQ-Imy)2Au]Cl, and AuNPs-B were added at various concentrations and duration times. […] The proliferation of the cells was measured at 72 h by the MTT method. The cell viability was examined using Ethidium bromide/Acride orange vital stain to exclude the dead cells and normalized the number of living cells to the total counted cells. […]

Series [10] concerns CEM human acute lymphoblastic leukemia cell. As to the kind of experiment: Cell proliferation (MTT) cytotoxicity, CEM. Type of series: cell-based. As to conditions: 72 h.
Source text: as §1, §3

The test system of series [11] is nine cancer cell lines. As to the kind of experiment: In vitro cytotoxicity across the panel of cancer cell lines. Format: cell-based, human.
Source text: as §1, §3

The nature of series [12]: Solubility in water. Format: physicochemical.

Each structure is given as a SMILES string. Like-named read-outs stand apart in the source and are kept apart here.

One may read the IC50 as the concentration at which inhibition is half-maximal. As for `N.N.[Cl][Pt][Cl]` [Cisplatin, reference compound], the IC50 in series [1] is 0.61 µg/mL; in [2], 1.67 ± 0.23 µg/mL; in [3], 2.45 µg/mL; in series [4] (H460, 72 h), 1.23 ± 0.29 µg/mL; in [5], 1.73 µg/mL; in series [6], 2.21 µg/mL. Further, the IC50 came out at 0.60 µg/mL in [7] and 0.71 ± 0.05 µg/mL in series [8].
Take `CCCCCCCCCCCCCCCCn1cc[n+](CCOCCOCCOc2cccc3cccnc23)[c]1[Au-][c]1n(CCOCCOCCOc2cccc3cccnc23)cc[n+]1CCCCCCCCCCCCCCCC.[Cl-]` [[(C16,TEGQ-Imy)2Au]Cl]: the concentration for half-maximal inhibition (IC50) stood at 3.37 ± 0.74 µg/mL in [9]; 2.71 ± 0.26 µg/mL in series [1]; 4.11 ± 0.78 µg/mL in series [10]; 7.47 ± 1.53 µg/mL in [2]; 29.41 ± 16.89 µg/mL in series [3]; 6.64 ± 1.22 µg/mL in [4] (H460, 72 h). The 50% inhibitory concentration (IC50) in series [5] worked out at 0.66 ± 0.14 µg/mL; in [6], 0.74 ± 0.03 µg/mL; in [7] it was 1.14 ± 0.31 µg/mL; in series [8], 4.06 ± 1.66 µg/mL. In series [11] (all of the eight cancer cell lines), the “IC50, range over cell lines” value was in the range of 2.7 to 29.4 µg/mL. Moreover, in [12], the “Solubility in water” value is “relatively poor solubility in water”.
For the compound `CCCCCCCCCCCCCCCCn1cc[n+](CCOCCOCCOc2cccc3cccnc23)c1.[Cl-]` [[C16,TEGQ-Im]Cl, 3-hexadecyl-1-(2-(2-(2-(quinolin-8-yloxy)ethoxy)ethoxy)ethyl)-imidazolium chloride], the 50% inhibitory concentration (IC50) in series [9] (Homo sapiens, read-out: IC50) worked out at 0.37 µg/mL; in series [1] (Homo sapiens, read-out: IC50) it was 0.22 ± 0.03 µg/mL; in series [10] (Homo sapiens, read-out: IC50), 0.67 ± 0.16 µg/mL; in [2] (Homo sapiens, read-out: IC50), 1.69 ± 0.14 µg/mL; in series [3] (Homo sapiens, read-out: IC50), 0.88 ± 0.11 µg/mL; in series [4] (Homo sapiens, NCI-H460, 72 h, read-out: IC50) it was 1.43 ± 0.3 µg/mL. Moreover, the IC50 in [5] (Homo sapiens, Hs-578T, read-out: IC50) was 0.39 ± 0.05 µg/mL; in [6] (Homo sapiens, read-out: IC50), 0.89 ± 0.56 µg/mL; in series [7] (Homo sapiens, read-out: IC50), 0.34 µg/mL; in [8] (read-out: IC50), 3.18 ± 0.76 µg/mL; in [11] (Homo sapiens, six cancer cell lines: THP-1, K562, HT-29, Hs578T, SH-SY5Y, SAS, read-out: IC50 values, range over cell lines), 0.22 to 0.89 µg/mL.
